From ChEMBL document CHEMBL1201862, “PubChem BioAssay data set” (2004)
Activity calls are given as the source filed them.

What was measured:
[1] = biological target: T1, Bcl-2-related protein A1 (Mus musculus, UniProt Q07440); type: functional;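 further: confirmatory dose–response counterscreen on Bfl-1, used to check hits from a UBC13 polyubiquitin inhibitor campaign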
T1 sequence (Q07440 whole entry): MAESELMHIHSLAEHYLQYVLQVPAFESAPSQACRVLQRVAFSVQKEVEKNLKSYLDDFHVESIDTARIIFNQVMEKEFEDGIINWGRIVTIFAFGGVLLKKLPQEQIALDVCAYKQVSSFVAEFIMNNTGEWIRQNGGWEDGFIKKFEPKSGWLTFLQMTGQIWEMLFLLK

[2] = biological target: T2, Apoptotic protease-activating factor 1 (Homo sapiens, UniProt O14727); type: functional
T2 sequence (O14727 whole entry): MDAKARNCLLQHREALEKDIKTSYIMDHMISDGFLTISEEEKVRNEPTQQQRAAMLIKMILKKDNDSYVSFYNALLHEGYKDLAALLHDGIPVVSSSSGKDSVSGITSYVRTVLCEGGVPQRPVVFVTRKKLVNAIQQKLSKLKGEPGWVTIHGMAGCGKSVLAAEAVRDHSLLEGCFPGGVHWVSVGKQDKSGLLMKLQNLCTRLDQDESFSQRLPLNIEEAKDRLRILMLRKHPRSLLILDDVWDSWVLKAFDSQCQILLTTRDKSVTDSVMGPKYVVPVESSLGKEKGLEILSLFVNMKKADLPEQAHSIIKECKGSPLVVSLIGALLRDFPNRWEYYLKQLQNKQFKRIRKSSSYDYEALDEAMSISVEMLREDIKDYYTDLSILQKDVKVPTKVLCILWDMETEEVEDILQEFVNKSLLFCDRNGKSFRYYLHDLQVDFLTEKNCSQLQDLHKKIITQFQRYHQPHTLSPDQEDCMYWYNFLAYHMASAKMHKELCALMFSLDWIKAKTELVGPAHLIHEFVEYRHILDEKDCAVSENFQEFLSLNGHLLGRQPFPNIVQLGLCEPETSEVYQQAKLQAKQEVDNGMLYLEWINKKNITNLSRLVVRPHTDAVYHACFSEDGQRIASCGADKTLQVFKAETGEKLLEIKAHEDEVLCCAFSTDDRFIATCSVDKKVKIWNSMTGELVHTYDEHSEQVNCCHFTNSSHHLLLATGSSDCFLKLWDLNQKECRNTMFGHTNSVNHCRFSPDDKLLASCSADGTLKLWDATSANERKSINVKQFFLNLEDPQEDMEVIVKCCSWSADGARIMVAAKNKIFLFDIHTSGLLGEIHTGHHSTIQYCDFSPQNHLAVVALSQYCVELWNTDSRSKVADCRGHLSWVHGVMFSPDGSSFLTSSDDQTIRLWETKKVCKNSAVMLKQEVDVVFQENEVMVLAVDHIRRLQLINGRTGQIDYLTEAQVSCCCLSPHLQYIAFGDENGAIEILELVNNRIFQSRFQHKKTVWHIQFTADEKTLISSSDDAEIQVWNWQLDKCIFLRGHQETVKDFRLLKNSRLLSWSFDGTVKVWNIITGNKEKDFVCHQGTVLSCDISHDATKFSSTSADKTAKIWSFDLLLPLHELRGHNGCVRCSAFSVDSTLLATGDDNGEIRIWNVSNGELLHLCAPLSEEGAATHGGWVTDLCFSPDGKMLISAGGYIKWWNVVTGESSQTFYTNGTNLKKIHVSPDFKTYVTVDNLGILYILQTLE

[3] = biological target: T3, Ubiquitin-conjugating enzyme E2 N (Homo sapiens, UniProt P61088); type: functional
T3 sequence (P61088 whole entry): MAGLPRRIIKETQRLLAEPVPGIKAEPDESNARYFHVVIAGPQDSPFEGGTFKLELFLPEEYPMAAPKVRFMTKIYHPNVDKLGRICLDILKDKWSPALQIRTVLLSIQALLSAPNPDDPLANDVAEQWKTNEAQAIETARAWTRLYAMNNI

[4] = biological target: T3, Ubiquitin-conjugating enzyme E2 N; type: functional; remark: listed apart in the source
[5] = test system: HEK293; assay: cells; settings: Homo sapiens
[6] = test system: HEK293; assay: cells; settings: Homo sapiens; remark: listed apart in the source
[7] = biological target: Delta-type opioid receptor (Homo sapiens, UniProt P41143); assay: Counterscreen for agonists of heterodimerization of the mu 1 (OPRM1) and delta 1 (OPRD1) opioid receptors: Luminescence-based cell-based high throughput dose response assay to identify agonists of OPRD1 homodimerization. [Related pubchem assays (depositor defined):AID504326, AID504355, AID504692, AID504904, AID504905]; type: functional
Chain of Delta-type opioid receptor (P41143 whole entry): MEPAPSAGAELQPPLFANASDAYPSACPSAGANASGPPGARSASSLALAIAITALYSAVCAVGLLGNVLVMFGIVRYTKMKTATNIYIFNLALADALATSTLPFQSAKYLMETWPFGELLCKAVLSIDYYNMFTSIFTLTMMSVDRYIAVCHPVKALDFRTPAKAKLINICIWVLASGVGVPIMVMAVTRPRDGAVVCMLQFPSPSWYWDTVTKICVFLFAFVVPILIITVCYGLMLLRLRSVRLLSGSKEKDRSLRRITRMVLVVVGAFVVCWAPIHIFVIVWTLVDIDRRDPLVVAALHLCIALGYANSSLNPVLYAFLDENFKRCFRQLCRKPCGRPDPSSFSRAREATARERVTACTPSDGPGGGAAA

[8] = biological target: 5-hydroxytryptamine receptor 5A (Homo sapiens, UniProt P47898); assay: Counterscreen for agonists of OPRM1-OPRD1 heterodimerization: luminescence-based cell-based high throughput dose response assay to identify agonists of 5-hydroxytryptamine (serotonin) 5A receptor (HTR5A). [Related pubchem assays (depositor defined):AID504326, AID504355, AID504692, AID504904, AID504905]; type: functional
Chain of 5-hydroxytryptamine receptor 5A (P47898 whole entry): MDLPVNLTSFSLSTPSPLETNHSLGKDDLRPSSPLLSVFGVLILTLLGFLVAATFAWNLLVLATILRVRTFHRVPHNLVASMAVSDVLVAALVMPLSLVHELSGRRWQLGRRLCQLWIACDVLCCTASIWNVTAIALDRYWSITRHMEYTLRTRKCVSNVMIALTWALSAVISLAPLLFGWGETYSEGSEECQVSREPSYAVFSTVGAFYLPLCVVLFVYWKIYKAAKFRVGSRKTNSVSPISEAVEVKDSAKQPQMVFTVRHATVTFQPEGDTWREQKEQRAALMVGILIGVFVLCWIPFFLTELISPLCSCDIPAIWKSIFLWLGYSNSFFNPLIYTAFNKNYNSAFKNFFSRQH

[9] = biological target: Mu-type opioid receptor (Homo sapiens, UniProt P35372); assay: Counterscreen for agonists of heterodimerization of the mu 1 (OPRM1) and delta 1 (OPRD1) opioid receptors: Luminescence-based cell-based high throughput dose response assay to identify agonists of OPRM1 homodimerization.; type: functional;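 further: U2OS cells expressing OPRM1 and beta-arrestin as split beta-galactosidase partners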
Chain of Mu-type opioid receptor (P35372 whole entry): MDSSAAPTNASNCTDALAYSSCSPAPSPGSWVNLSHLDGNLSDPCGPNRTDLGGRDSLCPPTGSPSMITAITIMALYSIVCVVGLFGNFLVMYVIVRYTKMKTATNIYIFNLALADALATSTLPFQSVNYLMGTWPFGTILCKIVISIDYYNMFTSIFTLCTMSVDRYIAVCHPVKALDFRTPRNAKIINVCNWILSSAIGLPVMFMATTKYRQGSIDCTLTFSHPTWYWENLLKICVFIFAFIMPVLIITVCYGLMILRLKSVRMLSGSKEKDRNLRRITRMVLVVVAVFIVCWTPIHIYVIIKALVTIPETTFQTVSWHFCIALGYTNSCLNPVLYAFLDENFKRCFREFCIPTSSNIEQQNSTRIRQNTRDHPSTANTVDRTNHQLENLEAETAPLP

[10] = Luminescence Cell-Based Dose Retest to Confirm Inhibitors of Cancer Stem Cells. [Related pubchem assays (depositor defined):AID2717, AID2721]; type: functional; settings: Homo sapiens
[11] = viability loss of HMLE_sh_eGFP cells – cell-based, luminescence, counter-screen for HMLE_sh_ECad selective toxicity project, dose response (AID 463074); type: functional, Homo sapiens;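 further: HMLE human mammary epithelial cells expressing control shRNA against eGFP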
[12] = test system: Escherichia coli; assay: microbe, parasite or virus in culture
[13] = test system: H4; assay: Luminescence Cell-Based Dose Response HTS to Identify Activators of 5'UTR Stem-Loop Driven Prion Protein mRNA Translation in H4 Neuroglioblastoma Cells. [Related pubchem assays: 1829 (Project Summary), 1814 (Primary HTS)]; type: functional; settings: Homo sapiens
[14] = test system: Vero; assay: cells; type: functional, cell-based; settings: Chlorocebus sabaeus
[15] = Luminescence Cell-Based Dose Response HTS to Identify Activators of Luciferase Translation or Activity in H4 […] Cells. [Related pubchem assays: 1829 (Project Summary), 1814 (Primary HTS)]; type: functional
[16] = biological target: T4, Microphthalmia-associated transcription factor (Homo sapiens, UniProt O75030); assay: reducers of TRPM1 reporter luminescence, concentration series – cell-based, SK-MEL-5, cherry-picked, set 3, MITF inhibitor project, dose response (AID 493073); type: functional;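 further: SK-MEL-5 melanoma cells with luciferase driven by the MITF target TRPM1 promoter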
T4 sequence (O75030 whole entry): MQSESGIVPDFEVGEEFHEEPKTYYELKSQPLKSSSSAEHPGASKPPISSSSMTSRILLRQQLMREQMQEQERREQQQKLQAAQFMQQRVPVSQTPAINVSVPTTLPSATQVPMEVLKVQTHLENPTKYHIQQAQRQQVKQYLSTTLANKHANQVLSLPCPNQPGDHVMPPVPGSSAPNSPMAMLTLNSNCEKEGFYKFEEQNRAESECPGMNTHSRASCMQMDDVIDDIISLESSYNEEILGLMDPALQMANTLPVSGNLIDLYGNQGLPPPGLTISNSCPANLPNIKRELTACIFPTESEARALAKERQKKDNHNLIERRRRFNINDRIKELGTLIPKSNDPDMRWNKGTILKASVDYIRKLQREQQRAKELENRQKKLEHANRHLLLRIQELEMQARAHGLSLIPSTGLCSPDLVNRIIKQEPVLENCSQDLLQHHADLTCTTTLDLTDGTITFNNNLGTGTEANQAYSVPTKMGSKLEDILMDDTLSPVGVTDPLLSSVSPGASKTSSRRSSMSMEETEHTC

[17] = test system: Vero; assay: cells; type: functional; settings: Chlorocebus sabaeus

Which results are given for `COc1ccc(C(CNC(=O)c2ccc(S(=O)(=O)Nc3ccccc3F)cc2)N(C)C)cc1` (centres undefined)?
IC50 [1]: > 20 µM (inactive); IC50 [2]: > 100 µM (inactive); IC50 [3]: 6.59 µM (active); IC50 [4]: 4.54 µM (active)

For `C=CCNc1sc(C(=O)c2ccccc2)c(N)c1-c1nc2ccccc2s1`, which EC50 [5] is on record?
Its EC50 is > 59.7 µM (inactive).

What about the EC50 [6] of the same compound?
Its EC50 is > 59.7 µM (inactive).

Which results are given for `COc1ccc(C2CC(c3ccc(OC)cc3)n3nc(NC(=O)c4cccs4)nc3N2)cc1` (centres undefined)?
EC50 [7]: > 92.5 µM (inactive); EC50 [8]: > 92.5 µM (inactive); EC50 [9]: > 92.5 µM (inactive)

Which AC50 [10] does the source give for `O=C(NCCc1ccc(Cl)cc1Cl)c1cc([N+](=O)[O-])cnc1O` here?
The AC50 was 4.14 µM (active).

And the AC50 [11]?
Its AC50 is 61.9 µM (active).

Which AC50 [10] does the source give for `NC(=O)CC(NC(=O)Cc1cccc2ccccc12)c1ccc(NCCOc2ccccc2)c([N+](=O)[O-])c1` (centres undefined) here?
Its AC50 is 147 µM (active).

And the AC50 [11]?
The AC50 was 22.9 µM (active).

With `CCCCN(C)CCn1c(=S)[nH]c2ncccc2c1=O` as the compound, how does the AC50 [12] read?
The AC50 was 29.7 µM (active).

For `N#C/C(=C\C=C\c1ccccc1[N+](=O)[O-])C(=O)NCc1ccccc1`, which EC50 [13] is on record?
The EC50 was > 120 µM (not active).

What about the IC50 [14] of the same compound?
The IC50 was > 25 µM (active).

And the EC50 [15]?
The EC50 was > 120 µM (not active).

And the AC50 [16]?
The AC50 was 14.7 µM (active).

And the CC50 [17]?
The CC50 was 15.3 µM (active).
